Results: paper PMC9228270, “Design, Synthesis, In Silico Studies and Inhibitory Activity towards Bcr-Abl, BTK and FLT3-ITD of New 2,6,9-Trisubstituted Purine Derivatives as Potential Agents for the Treatment of Leukaemia” (Pharmaceutics, 2022)
“And” between values parts separate entries of the source, which are not always exact repeats. Equal entries are not always repeated. Where two headings read alike, the source gives them in different places.

Tests used:
[1] = molecular target: Bcr-Abl1 (Homo sapiens, UniProt P00519); assay: Recombinant kinase radioassay, Abl; assay type: biochemical; conditions: ATP 1 µM, at least three independent experiments, range 0.01–100 µM
Procedure: (§1) Recombinant kinase inhibition was measured using standard radioassay. Bcr-Abl1 and Cdk-2/cyclin E kinases were produced in-house, FLT3-ITD and BTK were purchased from ProQinase. The kinases were assayed with suitable substrates (500 µM peptide […] for Abl, 1 mg/mL histone H1 for Cdk-2, 100 µM poly (Glu:Tyr; 4:1)) in the presence of ATP (1 µM for Bcr-Abl, 15 µM for Cdk-2 and BTK), 0.05 µCi [γ-^33P]ATP and the test compound in reaction buffer (60 mM HEPES-NaOH, pH 7.5, 3 mM MgCl2, 3 mM MnCl2, 3 µM Na orthovanadate, 1.2 mM DTT, 2.5 µg/50 µL PEG20.000). The reactions were stopped by adding 3% aq. H3PO4. P-81 phosphocellulose (Whatman) was used to separate phosphorylated substrates. Kinase activity was quantified using a FLA-7000 digital image analyser.

[2] = molecular target: T1, BTK (Homo sapiens, UniProt Q06187); assay: Recombinant kinase radioassay, BTK; assay type: biochemical
T1 construct: purchased ProQinase
Procedure: as §1

[3] = molecular target: T2, FLT3-ITD (Homo sapiens, UniProt P36888, ITD); assay: Recombinant kinase radioassay, FLT3-ITD; assay type: biochemical
T2 sequence (P36888 27-993): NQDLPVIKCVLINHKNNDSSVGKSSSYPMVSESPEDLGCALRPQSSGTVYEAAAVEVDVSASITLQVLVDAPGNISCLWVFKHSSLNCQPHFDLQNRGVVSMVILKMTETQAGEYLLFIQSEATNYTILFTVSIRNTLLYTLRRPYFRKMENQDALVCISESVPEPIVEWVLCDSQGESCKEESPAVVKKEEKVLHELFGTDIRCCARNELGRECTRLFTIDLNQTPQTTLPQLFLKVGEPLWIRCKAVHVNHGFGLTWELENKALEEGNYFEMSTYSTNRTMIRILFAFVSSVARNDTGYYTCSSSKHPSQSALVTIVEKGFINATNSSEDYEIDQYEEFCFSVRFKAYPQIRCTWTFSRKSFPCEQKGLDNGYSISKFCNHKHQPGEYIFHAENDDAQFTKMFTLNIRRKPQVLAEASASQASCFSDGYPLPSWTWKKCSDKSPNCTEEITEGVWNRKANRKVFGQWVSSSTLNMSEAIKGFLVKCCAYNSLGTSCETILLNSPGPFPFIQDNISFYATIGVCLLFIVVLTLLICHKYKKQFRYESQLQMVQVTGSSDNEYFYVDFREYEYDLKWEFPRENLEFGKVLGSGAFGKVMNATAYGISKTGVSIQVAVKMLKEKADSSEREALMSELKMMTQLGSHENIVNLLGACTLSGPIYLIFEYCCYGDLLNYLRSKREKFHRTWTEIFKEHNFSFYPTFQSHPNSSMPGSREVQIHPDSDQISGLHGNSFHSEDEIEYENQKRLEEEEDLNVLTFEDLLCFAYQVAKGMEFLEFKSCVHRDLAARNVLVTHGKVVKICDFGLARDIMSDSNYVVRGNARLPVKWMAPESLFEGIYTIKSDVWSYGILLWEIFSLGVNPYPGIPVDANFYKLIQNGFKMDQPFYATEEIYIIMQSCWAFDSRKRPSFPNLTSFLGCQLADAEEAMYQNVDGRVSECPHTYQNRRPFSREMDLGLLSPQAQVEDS
Procedure: as §1

[4] = molecular target: T3, Cdk-2/cyclin E (Homo sapiens, UniProt P24941); assay: Recombinant kinase radioassay, Cdk-2/cyclin E; assay type: biochemical; conditions: ATP 15 µM, at least three independent experiments, range 0.01–100 µM
T3 construct: made in house
Procedure: as §1

[5] = system: K562; assay: Cytotoxicity assay (resazurin), K562; assay type: cell-based; conditions: Homo sapiens, 72 h, three independent experiments, range 0.1 to 25 µM
Procedure: (§2) Cytotoxicity assays for the purines were quantified using the resazurin method, a dye to measure redox reactions occurring in the mitochondria of live cells. The cells were treated by tested compounds (in triplicate, six different doses) for 72 h.

[6] = system: HL-60; assay: Cytotoxicity assay (resazurin), HL-60; assay type: cell-based; conditions: Homo sapiens, 72 h, three independent experiments, range 0.1 to 25 µM
Procedure: as §2

[7] = system: MV4-11; assay: Cytotoxicity assay (resazurin), MV4-11; assay type: cell-based; conditions: Homo sapiens, 72 h, three independent experiments, range 0.1 to 25 µM
Procedure: as §2

[8] = system: Ramos; assay: Cytotoxicity assay (resazurin), Ramos; assay type: cell-based; conditions: Homo sapiens, 72 h, three independent experiments, range 0.1 to 25 µM
Procedure: as §2

[9] = system: CEM; assay: Cytotoxicity assay (resazurin), CEM; assay type: cell-based; conditions: Homo sapiens, CCRF-CEM, 72 h, three independent experiments, range 0.1 to 25 µM
Procedure: as §2

[10] = recombinant kinase, radioassay, ATP 15 µM, at least three independent experiments, range 0.01–100 µM, read-out: IC50 BTK
[11] = recombinant kinase, radioassay, at least three independent experiments, range 0.01–100 µM, read-out: IC50 FLT3-ITD
[12] = -log IC50 in molar concentration, Table S3, read-out: Experimental pIC50, CoMFA BTK (converted)
[13] = -log IC50 in molar concentration, Table S3, read-out: Experimental pIC50, CoMFA FLT3 (converted)

Chain of Bcr-Abl1 (P00519 27-1130): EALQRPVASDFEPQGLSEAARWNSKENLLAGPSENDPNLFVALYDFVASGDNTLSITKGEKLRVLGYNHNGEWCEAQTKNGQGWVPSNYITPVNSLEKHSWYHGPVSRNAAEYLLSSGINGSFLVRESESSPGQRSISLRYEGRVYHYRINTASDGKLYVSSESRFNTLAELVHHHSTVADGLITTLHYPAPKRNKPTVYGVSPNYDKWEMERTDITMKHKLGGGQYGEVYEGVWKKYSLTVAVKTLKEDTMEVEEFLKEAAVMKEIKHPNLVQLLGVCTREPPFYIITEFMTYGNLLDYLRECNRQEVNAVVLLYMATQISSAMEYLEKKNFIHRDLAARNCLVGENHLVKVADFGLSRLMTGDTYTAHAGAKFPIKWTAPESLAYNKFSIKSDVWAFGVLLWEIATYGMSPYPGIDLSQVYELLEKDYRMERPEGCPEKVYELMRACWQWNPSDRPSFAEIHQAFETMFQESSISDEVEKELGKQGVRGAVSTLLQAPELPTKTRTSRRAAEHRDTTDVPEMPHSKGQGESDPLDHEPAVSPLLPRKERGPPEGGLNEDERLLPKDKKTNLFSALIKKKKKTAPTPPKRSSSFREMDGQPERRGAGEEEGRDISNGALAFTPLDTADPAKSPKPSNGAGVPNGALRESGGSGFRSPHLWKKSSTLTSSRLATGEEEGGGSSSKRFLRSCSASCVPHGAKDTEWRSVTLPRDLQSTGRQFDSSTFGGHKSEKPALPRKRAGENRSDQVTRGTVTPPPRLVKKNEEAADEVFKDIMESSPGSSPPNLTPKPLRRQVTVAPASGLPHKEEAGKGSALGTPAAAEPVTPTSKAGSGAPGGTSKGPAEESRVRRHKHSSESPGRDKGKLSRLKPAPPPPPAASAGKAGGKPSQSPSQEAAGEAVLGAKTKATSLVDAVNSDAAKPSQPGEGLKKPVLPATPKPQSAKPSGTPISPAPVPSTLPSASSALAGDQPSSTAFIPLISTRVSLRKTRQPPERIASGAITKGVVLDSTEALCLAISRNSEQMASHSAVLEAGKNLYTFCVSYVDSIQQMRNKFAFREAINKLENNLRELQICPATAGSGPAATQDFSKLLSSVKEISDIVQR
T1 sequence (Q06187 whole entry): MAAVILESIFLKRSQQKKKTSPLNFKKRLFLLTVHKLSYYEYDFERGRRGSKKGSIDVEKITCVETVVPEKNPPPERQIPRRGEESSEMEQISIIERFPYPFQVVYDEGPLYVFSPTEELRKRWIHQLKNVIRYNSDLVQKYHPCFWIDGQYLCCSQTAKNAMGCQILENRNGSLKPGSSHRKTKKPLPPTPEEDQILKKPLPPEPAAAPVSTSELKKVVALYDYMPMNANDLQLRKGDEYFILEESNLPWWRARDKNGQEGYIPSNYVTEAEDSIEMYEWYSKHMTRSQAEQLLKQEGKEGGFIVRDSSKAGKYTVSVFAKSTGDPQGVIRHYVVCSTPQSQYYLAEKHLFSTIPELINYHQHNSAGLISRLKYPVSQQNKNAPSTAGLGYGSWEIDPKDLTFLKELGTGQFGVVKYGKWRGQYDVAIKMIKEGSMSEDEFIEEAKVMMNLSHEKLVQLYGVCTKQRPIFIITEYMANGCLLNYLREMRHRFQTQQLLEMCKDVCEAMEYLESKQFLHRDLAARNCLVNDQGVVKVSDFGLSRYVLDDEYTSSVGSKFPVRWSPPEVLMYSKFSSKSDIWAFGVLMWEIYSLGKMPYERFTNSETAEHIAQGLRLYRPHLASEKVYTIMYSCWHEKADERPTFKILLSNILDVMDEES

| IC50 [1] | IC50 [2, 10] | IC50 [3, 11] | IC50 [4] | melting point | IC50 [2, 12] | IC50 [3, 13] | Compound | GI50 [5] | GI50 [6] | GI50 [7] | GI50 [8] | GI50 [9] |
| --- | --- | --- | --- | --- | --- | --- | --- | --- | --- | --- | --- | --- |
| – | – | – | – | – | 1360 nM | 1250 nM | CN1CCN(C(=O)c2ccc(N)cc2)CC1 [Compound 7] | – | – | – | – | – |
| – | – | – | – | – | 938 nM | 534 nM | Clc1nc(Cl)c2cc[nH]c2n1 [Compound 9] | – | – | – | – | – |
| – | – | – | – | – | 1160 nM | 1160 nM | Clc1nc(Nc2ccccc2)c2ccn(CC3CC3)c2n1 [Compound 11] | – | – | – | – | – |
| – | – | – | – | – | 4120 nM | 2320 nM | O=C(Cl)c1ccc([N+](=O)[O-])cc1 [Compound 6] | – | – | – | – | – |
| – | 1720 ± 190 nM | 1600 nM | – | 150 to 151 °C | – | – | CN1CCN(C(=O)c2ccc(Nc3nc(Nc4cccc(F)c4)c4ncn(CC5CC5)c4n3)cc2)CC1 [Compound 8b, (4-((9-(Cyclopropylmethyl)-6-((3-fluorophenyl)amino)-9H-purin-2-yl)amino)phenyl)(4-methylpiperazin-1-yl)methanone] | 4910 ± 10 nM | 1080 ± 100 nM | 1480 ± 540 nM | 7070 ± 320 nM | 20200 ± 3730 nM |
| 84500 ± 5900 nM | 580 ± 330 nM | > 20000 nM | 32200 ± 1330 nM | – | – | – | CCCCCCCCn1cnc2c(Nc3ccc(F)c(F)c3)nc(Nc3ccc(N4CCN(C)CC4)cc3)nc21 [Compound 5l, N^6-(3,4-Difluorophenyl)-N^2-(4-(4-methylpiperazin-1-yl)phenyl)-9-octyl-9H-purine-2,6-diamine] | 11800 ± 2190 nM | 1510 ± 1490 nM | 16300 ± 4990 nM | 18800 ± 2110 nM | > 25000 nM |
| – | – | – | – | – | 912 nM | 367 nM | Clc1nc(Cl)c2ccn(CC3CC3)c2n1 [Compound 10] | – | – | – | – | – |

The remaining lines, values behind:

| Compound | IC50 [1] | IC50 [2, 10] | IC50 [3, 11] | IC50 [4] | melting point | IC50 [2, 12] | IC50 [3, 13] | GI50 [5] | GI50 [6] | GI50 [7] | GI50 [8] | GI50 [9] |
| --- | --- | --- | --- | --- | --- | --- | --- | --- | --- | --- | --- | --- |
| CN1CCN(c2ccc(Nc3nc(Nc4cccc(Cl)c4)c4ncn(CC5CC5)c4n3)cc2)CC1 [Compound 4b, N^6-(3-Chlorophenyl)-9-(cyclopropylmethyl)-N^2-(4-(4-methylpiperazin-1-yl)phenyl)-9H-purine-2,6-diamine] | 120 ± 30 nM | 1280 ± 180 nM | 1120 nM | 20000 ± 2070 nM | 152 to 153 °C | – | – | 1990 ± 820 nM | 1930 ± 1050 nM | 1940 ± 160 nM | 10600 ± 3080 nM | 19000 ± 1070 nM |
| CC(C)CCn1cnc2c(Nc3ccccc3)nc(Nc3ccc(N4CCN(C)CC4)cc3)nc21 [Compound 5a, 9-Isopentyl-N^2-(4-(4-methylpiperazin-1-yl)phenyl)-N^6-phenyl-9H-purine-2,6-diamine] | 1780 ± 200 nM | 2220 ± 960 nM | 230 nM | 22100 ± 380 nM | 153.1 to 155.2 °C | – | – | 8930 ± 5520 nM | 1520 ± 610 nM | 730 ± 250 nM | 10100 ± 2980 nM | 16400 ± 2410 nM |
| CN1CCN(c2ccc(Nc3nc(Nc4ccc([N+](=O)[O-])cc4)c4ncn(CC5CC5)c4n3)cc2)CC1 [Compound 4j, 9-(Cyclopropylmethyl)-N^2-(4-(4-methylpiperazin-1-yl)phenyl)-N^6-(4-nitrophenyl)-9H-purine-2,6-diamine] | 540 ± 20 nM | 940 ± 40 nM | 530 nM | 23800 ± 6050 nM | 162 to 163 °C | – | – | 2840 ± 1040 nM | 420 ± 80 nM | 2210 ± 710 nM | 1300 ± 500 nM | 2520 ± 290 nM |
| CN1CCN(c2ccc(Nc3nc(Nc4cccc([N+](=O)[O-])c4)c4ncn(CC5CC5)c4n3)cc2)CC1 [Compound 4g, 9-(Cyclopropylmethyl)-N^2-(4-(4-methylpiperazin-1-yl)phenyl)-N^6-(3-nitrophenyl)-9H-purine-2,6-diamine] | 110 ± 10 nM | 1360 ± 160 nM | 1250 nM | 5620 ± 520 nM | 165 to 166 °C | – | – | 2930 ± 590 nM | 8510 ± 1790 nM | 1980 ± 460 nM | 4870 ± 10 nM | 11400 ± 3930 nM |
| CN1CCN(c2ccc(Nc3nc(Nc4ccccc4F)c4ncn(CC5CC5)c4n3)cc2)CC1 [Compound 4a, 9-(Cyclopropylmethyl)-N^6-(2-fluorophenyl)-N^2-(4-(4-methylpiperazin-1-yl)phenyl)-9H-purine-2,6-diamine] | 4190 ± 830 nM | 14700 ± 1480 nM | – | 14000 ± 2330 nM | 149 to 152 °C | – | – | 21300 ± 630 nM | 1820 ± 350 nM | 6470 ± 1820 nM | 15600 ± 880 nM | 17100 ± 400 nM |
| CN1CCN(c2ccc(Nc3nc(Nc4cccc(C#N)c4)c4ncn(CC5CC5)c4n3)cc2)CC1 [Compound 4f, 3-((9-(Cyclopropylmethyl)-2-((4-(4-methylpiperazin-1-yl)phenyl)amino)-9H-purin-6-yl)amino)benzonitrile] | 70 ± 10 nM | 1430 ± 290 nM | 930 nM | 23600 ± 1150 nM | – | – | – | 3680 ± 780 nM | 1560 ± 880 nM | 1050 ± 100 nM | 5860 ± 3640 nM | – |
| CCOC(=O)c1ccc(Nc2nc(Nc3ccc(N4CCN(C)CC4)cc3)nc3c2ncn3CC2CC2)cc1 [Compound 4k, Ethyl-4-((9-(cyclopropylmethyl)-2-((4-(4-methylpiperazin-1-yl)phenyl)amino)-9H-purin-6-yl)amino)benzoate] | 40 ± 10 nM | 1160 ± 180 nM | 1160 nM | > 50000 nM | – | – | – | 2700 ± 1310 nM | 1930 ± 170 nM | 2430 ± 590 nM | 12300 ± 1580 nM | 13900 ± 1120 nM |
| Clc1nc(Cl)c2[nH]cnc2n1 [Compound 1] | – | – | – | – | – | 14700 nM | 19400 nM | – | – | – | – | – |
| CC(C)CCn1cnc2c(Nc3ccc(F)c(F)c3)nc(Nc3ccc(N4CCN(C)CC4)cc3)nc21 [Compound 5c, N^6-(3,4-Difluorophenyl)-9-isopentyl-N^2-(4-(4-methylpiperazin-1-yl)phenyl)-9H-purine-2,6-diamine] | 2280 ± 800 nM | 1890 ± 170 nM | 790 nM | 62500 ± 15000 nM | – | – | – | 9400 ± 780 nM | 1590 ± 470 nM | 1430 ± 560 nM | 8870 ± 940 nM | 16800 ± 3340 nM |
| CCCCCn1cnc2c(Nc3ccc(F)c(F)c3)nc(Nc3ccc(N4CCN(C)CC4)cc3)nc21 [Compound 5f, N^6-(3,4-Difluorophenyl)-N^2-(4-(4-methylpiperazin-1-yl)phenyl)-9-pentyl-9H-purine-2,6-diamine] | 1360 ± 500 nM | 930 ± 140 nM | 1020 nM | 20800 ± 3180 nM | – | – | – | > 25000 nM | 3610 ± 1020 nM | 1610 ± 630 nM | > 25000 nM | > 25000 nM |
| CCCCCCn1cnc2c(Nc3ccc(F)c(F)c3)nc(Nc3ccc(N4CCN(C)CC4)cc3)nc21 [Compound 5i, N^6-(3,4-Difluorophenyl)-9-hexyl-N^2-(4-(4-methylpiperazin-1-yl)phenyl)-9H-purine-2,6-diamine] | 34000 ± 1630 nM | < 580 nM and 460 nM | 2740 nM | 47300 ± 31600 nM | – | – | – | > 25000 nM | 3910 ± 70 nM | 3860 ± 1080 nM | > 25000 nM | > 25000 nM |
